Measurements published in patent US20250221966A1, “RXFP1 AGONISTS” (BRISTOL-MYERS SQUIBB COMPANY, priority 2021, published 2025).

Target: T1, human RXFP1 (Homo sapiens, UniProt Q9HBX9)
T1 construct: expressed in transfected cells
T1 sequence (Q9HBX9 1-757): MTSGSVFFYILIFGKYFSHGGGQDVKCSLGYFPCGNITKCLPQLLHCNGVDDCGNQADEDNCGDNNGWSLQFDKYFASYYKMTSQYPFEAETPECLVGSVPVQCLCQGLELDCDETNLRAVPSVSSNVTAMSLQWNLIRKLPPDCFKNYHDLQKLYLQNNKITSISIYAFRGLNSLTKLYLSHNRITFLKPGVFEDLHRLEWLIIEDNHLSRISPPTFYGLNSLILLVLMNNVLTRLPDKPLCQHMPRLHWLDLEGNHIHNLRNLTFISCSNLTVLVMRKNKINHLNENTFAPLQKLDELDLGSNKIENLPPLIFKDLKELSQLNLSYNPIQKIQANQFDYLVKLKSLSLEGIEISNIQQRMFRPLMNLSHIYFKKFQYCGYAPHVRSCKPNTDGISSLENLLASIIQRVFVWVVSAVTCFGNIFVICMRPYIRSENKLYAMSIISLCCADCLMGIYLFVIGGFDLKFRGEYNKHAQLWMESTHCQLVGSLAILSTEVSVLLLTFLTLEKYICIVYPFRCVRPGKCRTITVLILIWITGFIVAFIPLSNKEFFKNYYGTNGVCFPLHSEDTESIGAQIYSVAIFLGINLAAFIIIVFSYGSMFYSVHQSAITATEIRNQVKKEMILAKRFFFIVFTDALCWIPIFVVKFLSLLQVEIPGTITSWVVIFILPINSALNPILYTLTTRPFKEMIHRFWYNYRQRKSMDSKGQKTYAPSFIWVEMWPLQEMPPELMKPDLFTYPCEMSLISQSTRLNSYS
Assay: RXFP1 cAMP assay (hRXFP1 HEK293 cAMP assay, HTRF)
Format: cell-based
Details: HEK293 cells stably expressing human RXFP1, 30 min at room temperature, read-out: cAMP hRXFP1 HEK293 Assay EC50
How it was run: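 HEK293 cells stably expressing human RXFP1 (1500 cells/well) in HBSS/20 mM HEPES/0.05% BSA/0.5 mM IBMX. Compounds were tested at 0.010 nM–50 μM final (2% DMSO) for 30 min at room temperature. cAMP was measured by HTRF and values derived by 4-parameter logistic fit.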

Row | EC50 [µM] | Compound
1 | 0.0069 | COc1ccc(-c2cc([C@H](OC(=O)NC3CCC3)C(F)(F)F)ccc2F)cc1C(=O)N[C@H]1[C@@H](C(=O)N[C@H](C)C2(C)CC2)[C@H]2CC[C@@H]1/C2=C\CCC(F)(F)F [compound 966]
2 | 0.005 | COc1ccc(-c2cc(C(OC(=O)Nc3ccccc3)C(=O)O)ccc2F)cc1C(=O)N[C@@H]1C2CCC(/C2=C/C2CC2)[C@@H]1C(=O)Nc1ccc(F)c(C(F)(F)F)c1 (stereo partly drawn) [Example 177]
3 | 0.164 | COc1ccc(C2=NOC3COCC23)cc1C(=O)N[C@H]1[C@@H](C(=O)NCC2CC(F)(F)C2)[C@H]2CC[C@@H]1/C2=C\C1CC1 (stereo partly drawn) [compound 621]
4 | 0.169 | COc1ccc(C2=NOC3COCC23)cc1C(=O)N[C@H]1[C@@H](C(=O)NCc2ccccc2OC(F)F)[C@H]2CC[C@@H]1/C2=C\C1CC1 (stereo partly drawn) [compound 624]
5 | 0.0022 | CCC/C=C1\[C@H]2CC[C@@H]1[C@H](C(=O)Nc1ccc(F)c(C(F)(F)F)c1)[C@@H]2NC(=O)c1cc(C2=NOC3CC(CO)CC23)cc(F)c1OC (stereo partly drawn) [compound 793]
6 | 0.044 | COc1ccc(-c2ccc(C(=O)O)cc2F)cc1C(=O)N[C@@H]1C2CCC(/C2=C/c2ccccc2)[C@@H]1C(=O)Nc1ccc(F)c(C(F)(F)F)c1 (stereo partly drawn) [compound 169]
7 | 0.025 | COc1ccc(C2=NOC3CCCC23)cc1C(=O)N[C@@H]1C2CCC(/C2=C/C2CC2)[C@@H]1C(=O)Nc1ccc(F)c(C(F)(F)F)c1 (stereo partly drawn) [compound 440]
8 | 0.011 | O=C(NC1CCC1)OC(c1ccc(F)c(-c2ccc(OCc3ccccc3)c(C(=O)N[C@@H]3C4CCC(/C4=C/C4CC4)[C@@H]3C(=O)Nc3ccc(F)c(C(F)(F)F)c3)c2)c1)C(F)(F)F (stereo partly drawn) [compound 252]
9 | 0.001 | COc1ccc(-c2cc(C(OC(=O)NC34CC(C3)C4)C(F)(F)F)ccc2F)cc1C(=O)N[C@H]1[C@@H](C(=O)Nc2ccc(F)c(C(F)(F)F)c2)[C@H]2CC[C@@H]1/C2=C\C1CC1 (single isomer, unassigned) [Example 206]
10 | 0.19 | COCC1(NC(=O)[C@@H]2[C@H](NC(=O)c3cc(C4=NOC5COCC45)ccc3OC)[C@@H]3CC[C@H]2/C3=C/C2CC2)CCCC1 (stereo partly drawn) [compound 632]
11 | 0.003 | COc1ccc(-c2cc(C(O)C(=O)O)ccc2F)cc1C(=O)NC1C2CCC(/C2=C/C2CCCC2)C1C(=O)Nc1ccc(F)c(C(F)(F)F)c1 (stereo not drawn) [compound 355]
12 | 0.15 | CC=C1C2CCC1[C@H](C(=O)Nc1ccc(F)c(C(F)(F)F)c1)[C@@H]2NC(=O)c1cc(F)c(F)cc1OC (stereo partly drawn) [compound 50]
13 | 0.0293 | COc1ccc(C2=NO[C@H]3[C@@H]2[C@@H](O)C[C@H]3O)cc1C(=O)N[C@H]1[C@@H](C(=O)Nc2ccc(F)c(C(F)(F)F)c2)[C@H]2CC[C@@H]1/C2=C\C1CC1 (single isomer, unassigned) [compound 539]
14 | 0.0014 | COc1c(F)cc(C2=NOC3CC(CO)CC23)cc1C(=O)N[C@H]1[C@@H](C(=O)Nc2ccc(F)c(C(F)(F)F)c2)[C@H]2CC[C@@H]1/C2=C\CCC(F)(F)F (stereo partly drawn) [compound 792]
15 | 1.05 | COc1ccc([C@@]2(O)CO[C@@H]3[C@@H](O)CO[C@@H]32)cc1C(=O)N[C@H]1[C@@H](C(=O)Nc2ccc(F)c(C(F)(F)F)c2)[C@H]2CC[C@@H]1/C2=C\C1CC1 [compound 700]
16 | 0.007 | COc1ccc(-c2cc(C3OC(=O)N(C)C3=O)ccc2F)cc1C(=O)N[C@@H]1C2CCC(/C2=C/C2CC2)[C@@H]1C(=O)Nc1ccc(F)c(C(F)(F)F)c1 (stereo partly drawn) [compound 173]
17 | 0.005 | COc1ccc(-c2ccnc3c2ncn3CC(=O)O)cc1C(=O)N[C@@H]1C2CCC(/C2=C/C(F)(F)F)[C@@H]1C(=O)Nc1ccc(F)c(C(F)(F)F)c1 (stereo partly drawn) [compound 314]
18 | 1.1 | COc1cc(F)c(F)cc1C(=O)N[C@@H]1C2CCC(/C2=C\Br)[C@@H]1C(=O)Nc1ccc(F)c(C(F)(F)F)c1 (stereo partly drawn) [compound 10]
19 | 0.07 | COc1ccc(C2=NOC3(CCOCC3)C2)cc1C(=O)N[C@@H]1C2CCC(/C2=C/C2CC2)[C@@H]1C(=O)Nc1ccc(F)c(C(F)(F)F)c1 (stereo partly drawn) [compound 402]
20 | 0.001 | COc1ccc(-c2cc(C(NC(=O)C3CCOCC3)C(=O)O)ccc2F)cc1C(=O)N[C@H]1[C@@H](C(=O)Nc2ccc(F)c(C(F)(F)F)c2)[C@H]2CC[C@@H]1/C2=C\C1CC1 (stereo partly drawn) [Example 238, 2-(3′-(((1R,2R,3S,4R,Z)-7-(cyclopropylmethylene)-3-((4-fluoro-3-(trifluoromethyl)phenyl)carbamoyl)bicyclo[2.2.1]heptan-2-yl)carbamoyl)-6-fluoro-4′-methoxy-[1,1′-biphenyl]-3-yl)-2-(tetrahydro-2H-pyran-4-carboxamido)acetic acid]
21 | 0.0048 | COc1ccc(-c2cnn3c2CC(O)CC3)cc1C(=O)N[C@H]1[C@@H](C(=O)N[C@@H](C)C2(C)CC2)[C@H]2CC[C@@H]1/C2=C\C1CC1 (stereo partly drawn) [compound 871]

Row | EC50 [µM] | Compound
22 | 0.0219 | COc1ccc(C2=NOC(C(C)(C)O)C2)cc1C(=O)N[C@H]1[C@@H](C(=O)Nc2ccc(F)c(C(F)(F)F)c2)[C@H]2CC[C@@H]1/C2=C\C1CC1 (single isomer, unassigned) [compound 524]
23 | 0.012 | COc1ccc(-c2ccc(N3CCOCC3)nc2)cc1C(=O)N[C@@H]1C2CCC(/C2=C/C2CC2)[C@@H]1C(=O)Nc1ccc(F)c(C(F)(F)F)c1 (stereo partly drawn) [compound 250]
24 | 0.0044 | COc1ccc(C2=NO[C@H]3COC[C@@H]23)cc1C(=O)N[C@H]1[C@@H](C(=O)Nc2ccc(F)c(C(F)(F)F)c2)[C@H]2CC[C@@H]1/C2=C\CCC1CC1 [compound 839]
25 | 0.0016 | CCCOc1c(F)cc(C2=NOC3CC(CO)CC23)cc1C(=O)N[C@H]1[C@@H](C(=O)Nc2ccc(F)c(C(F)(F)F)c2)[C@H]2CC[C@@H]1/C2=C\C1CC1 (stereo partly drawn) [compound 779]
26 | 0.155 | COc1ccc(C2=NOC(C3(O)CC3)C2)cc1C(=O)N[C@H]1[C@@H](C(=O)NCC(C)(C)C)[C@H]2CC[C@@H]1/C2=C\C1CC1 (stereo partly drawn) [compound 618]
27 | 0.128 | COc1ccc(C2CCCN2CC(C)(C)O)cc1C(=O)N[C@@H]1C2CCC(C2=CC2CC2)[C@@H]1C(=O)Nc1ccc(F)c(C(F)(F)F)c1 (stereo partly drawn) [compound 607]
28 | 0.684 | COCCN1CCCC1c1ccc(OC)c(C(=O)N[C@@H]2C3CCC(C3=CC3CC3)[C@@H]2C(=O)Nc2ccc(F)c(C(F)(F)F)c2)c1 (stereo partly drawn) [compound 689]
29 | 0.0049 | CC(F)(F)COc1ccc(C2=NOC3COCC23)cc1C(=O)N[C@@H]1C2CCC(/C2=C/C2CC2)[C@@H]1C(=O)Nc1ccc(F)c(C(F)(F)F)c1 (stereo partly drawn) [compound 790]
30 | 0.38 | COc1ccc(-c2cn(C)nc2C)cc1C(=O)N[C@H]1[C@@H](C(=O)Nc2ccc(F)c(C(F)(F)F)c2)[C@H]2CC[C@@H]1C2=C(C)C [compound 92]
31 | 0.311 | CCC(NC(=O)[C@@H]1[C@H](NC(=O)c2cc(C3=NOC4COCC34)ccc2OC)[C@@H]2CC[C@H]1/C2=C/C1CC1)c1ccccc1C (single isomer, unassigned) [compound 656]
32 | 0.041 | COc1ccc(-c2cccnc2F)cc1C(=O)N[C@H]1[C@@H](C(=O)Nc2ccc(F)c(C(F)(F)F)c2)[C@H]2CC[C@@H]1/C2=C\c1ccccc1 [compound 82]
33 | 0.0042 | O=C(N[C@H]1[C@@H](C(=O)Nc2ccc(F)c(C(F)(F)F)c2)[C@H]2CC[C@@H]1/C2=C\C1CC1)c1cc(C2=NOC3CC(CO)CC23)ccc1OCCCF (stereo partly drawn) [compound 787]
34 | 3.9 | CC(C)=C1C2CCC1[C@H](C(=O)Nc1ccc(F)c(C(F)(F)F)c1)[C@@H]2NC(=O)c1ccccc1N(C)C (stereo partly drawn) [compound 119]
35 | 0.0028 | COc1ccc(-c2cc(C(NC(=O)C3CCOCC3)C(=O)O)ccc2F)cc1C(=O)N[C@H]1[C@@H](C(=O)N[C@H](C)C2(C)CC2(F)F)[C@H]2CC[C@@H]1/C2=C\C1CC(F)(F)C1 (stereo partly drawn) [compound 971]
36 | 0.17 | COc1ccc(C2=NOC3COCC23)cc1C(=O)N[C@@H]1C2CCC(/C2=C/C2CC2)[C@@H]1C(=O)Nc1ccc(F)c(C(F)(F)F)c1 (stereo partly drawn) [compound 418]
37 | 0.0172 | COc1ccc(C2=NOC(C3(O)CCC3)C2)cc1C(=O)N[C@H]1[C@@H](C(=O)Nc2ccc(F)c(C(F)(F)F)c2)[C@H]2CC[C@@H]1/C2=C\C1CC1 (single isomer, unassigned) [compound 515]
38 | 0.0019 | COc1ccc(C2=NOC3CC(CO)CC23)cc1C(=O)N[C@@H]1C2CCC(/C2=C/C2CC2)[C@@H]1C(=O)Nc1ccc(F)c(OC(F)(F)F)c1 (stereo partly drawn) [compound 972]
39 | 0.011 | COc1ccc(-c2ccc(C(=O)O)cc2)cc1C(=O)N[C@@H]1C2CCC(/C2=C/c2ccccc2)[C@@H]1C(=O)Nc1ccc(F)c(C(F)(F)F)c1 (stereo partly drawn) [Example 79]
40 | 0.0195 | COc1ccc(C2=NOC3COCC23)cc1C(=O)N[C@H]1[C@@H](C(=O)NC(C2CC2)C2CC2)[C@H]2CC[C@@H]1/C2=C\C1CC1 (stereo partly drawn) [compound 521]
41 | 0.18 | CC(C)=C1C2CCC1[C@H](C(=O)Nc1ccc(F)c(C(F)(F)F)c1)[C@@H]2NC(=O)c1cc(-c2cc(C(=O)O)ccc2F)ccc1N(C)C (stereo partly drawn) [Example 107]
42 | 0.12 | COc1cc(F)c(F)cc1C(=O)N[C@@H]1C2CCC(/C2=C/c2cccc(Cl)c2)[C@@H]1C(=O)Nc1ccc(F)c(C(F)(F)F)c1 (stereo partly drawn) [compound 17]
